Legend:
Assay in all cases: relative viability (nuclei count vs DMSO), 5 days (fraction); higher = more cells survive
[1] = compound: O=S(=O)(c1ccccc1)N(CC(F)(F)F)c1ccc(C(O)(C(F)(F)F)C(F)(F)F)cc1 + O=C(CCCCCCC(=O)Nc1ccccc1)NO [Vorinostat] (partner 1 µM)
In short: (§1)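 Lung cancer cell lines, seeded in 1536-well plates, were treated the following day by pin tool with a single drug or with five library-drug doses (not always all listed) in √10 steps on top of a fixed anchor-drug dose. Cells were fixed and nuclei stained in one step after 5 days, and nuclei were counted. Relative viability is the nuclei count for treated wells divided by that for vehicle wells, reported as medians of duplicate plates.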

[2] = compound: O=S(=O)(c1ccccc1)N(CC(F)(F)F)c1ccc(C(O)(C(F)(F)F)C(F)(F)F)cc1 + C[C@@H](Oc1cc(-c2cnn(C3CCNCC3)c2)cnc1N)c1c(Cl)ccc(F)c1Cl [Crizotinib] (partner 1 µM)
In short: as §1

RO-3306 + Olaparib = compound: C1=CC2=C(C=CC(=C2)C=C3C(=O)NC(=NCC4=CC=CS4)S3)N=C1 [RO-3306] + O=C(c1cc(Cc2n[nH]c(=O)c3ccccc23)ccc1F)N1CCN(C(=O)C2CC2)CC1 [Olaparib] (partner 8 µM)
In short: as §1

[3] = compound: O=S(=O)(c1ccccc1)N(CC(F)(F)F)c1ccc(C(O)(C(F)(F)F)C(F)(F)F)cc1 + COc1cccc2cc(-c3nc([C@H]4CC[C@H](C(=O)O)CC4)n4ncnc(N)c34)[nH]c12 [OSI-027] (partner 0.5 µM)
In short: as §1

[4] = compound: O=S(=O)(c1ccccc1)N(CC(F)(F)F)c1ccc(C(O)(C(F)(F)F)C(F)(F)F)cc1 + C[C@]1(O)C[C@@H](c2nc(-c3ccc4ccc(-c5ccccc5)nc4c3)c3c(N)nccn32)C1 [Linsitinib] (partner 1 µM)
In short: as §1

[5] = compound: O=S(=O)(c1ccccc1)N(CC(F)(F)F)c1ccc(C(O)(C(F)(F)F)C(F)(F)F)cc1 + Nc1nc2[nH]cc(CCc3ccc(C(=O)N[C@@H](CCC(=O)O)C(=O)O)cc3)c2c(=O)[nH]1 [Pemetrexed] (partner 0.2 µM)
In short: as §1

| Cell Line | relative viability ([1]; first compound 0.8 µM) | relative viability ([1]; first compound 2.53 µM) | relative viability ([1]; first compound 8 µM) | relative viability ([2]; first compound 0.8 µM) | relative viability ([2]; first compound 2.53 µM) | relative viability ([2]; first compound 8 µM) | relative viability (RO-3306 + Olaparib; first compound 0.01 µM) | relative viability (RO-3306 + Olaparib; first compound 0.03162 µM) | relative viability (RO-3306 + Olaparib; first compound 0.1 µM) | relative viability (RO-3306 + Olaparib; first compound 0.3162 µM) | relative viability (RO-3306 + Olaparib; first compound 1 µM) | relative viability ([3]; first compound 0.8 µM) | relative viability ([3]; first compound 2.53 µM) | relative viability ([3]; first compound 8 µM) | relative viability ([4]; first compound 0.8 µM) | relative viability ([4]; first compound 2.53 µM) | relative viability ([4]; first compound 8 µM) | relative viability ([5]; first compound 0.8 µM) | relative viability ([5]; first compound 2.53 µM) | relative viability ([5]; first compound 8 µM) |
| --- | --- | --- | --- | --- | --- | --- | --- | --- | --- | --- | --- | --- | --- | --- | --- | --- | --- | --- | --- | --- |
| 201T | 0.953 | 0.918 | 0.865 | 1 | 0.902 | 1 | 0.861 | 0.855 | 0.82 | 0.828 | 0.828 | 0.685 | 0.738 | 0.688 | 0.996 | 0.941 | 1.04 | 0.331 | 0.343 | 0.401 |
| A-427 | 0.85 | 0.803 | 0.812 | 0.929 | 0.793 | 0.872 | 0.81 | 0.813 | 0.705 | 0.778 | 0.652 | 0.434 | 0.479 | 0.676 | 1.04 | 1.03 | 1.12 | 0.939 | 0.937 | 1.05 |
| BEN | 0.581 | 0.543 | 0.566 | 0.952 | 0.89 | 0.766 | 1.09 | 0.893 | 1.01 | 1.16 | 1.02 | 0.344 | 0.266 | 0.308 | 1.09 | 0.858 | 0.82 | 0.702 | 0.742 | 0.972 |
| CAL-12T | 0.672 | 0.578 | 0.548 | 0.708 | 0.417 | 0.477 | 0.808 | 0.717 | 0.668 | 0.777 | 0.737 | 0.548 | 0.554 | 0.588 | 0.719 | 0.499 | 0.542 | 1.29 | 1.06 | 0.982 |
| COR-L23 | 0.522 | 0.543 | 0.423 | 0.644 | 0.472 | 0.597 | 0.414 | 0.364 | 0.456 | 0.34 | 0.322 | 0.85 | 0.793 | 0.734 | 1.12 | 0.971 | 0.748 | 0.2 | 0.193 | 0.208 |
| COR-L 105 | 0.615 | 0.706 | 0.66 | 0.876 | 0.839 | 0.661 | 0.661 | 0.798 | 0.633 | 0.715 | 0.601 | 0.763 | 0.581 | 0.715 | 0.896 | 0.758 | 0.96 | 1.34 | 1.06 | 0.988 |
| EKVX | 0.697 | 0.513 | 0.535 | 1.09 | 0.85 | 0.898 | 1.03 | 0.821 | 0.846 | 0.895 | 0.704 | 0.746 | 0.646 | 0.691 | 0.897 | 0.946 | 0.931 | 0.388 | 0.362 | 0.292 |
| EMC-BAC-2 | 0.336 | 0.296 | 0.467 | 0.844 | 0.731 | 0.577 | 0.472 | 0.459 | 0.468 | 0.481 | 0.448 | 0.455 | 0.422 | 0.37 | 0.902 | 0.846 | 0.796 | 0.402 | 0.401 | 0.416 |
| EPLC-272H | 0.319 | 0.476 | 0.396 | 1.24 | 0.742 | 0.841 | 0.752 | 0.461 | 1.22 | 0.647 | 0.291 | 0.301 | 0.304 | 0.25 | 1.12 | 1.32 | 1.11 | 0.361 | 0.41 | 0.376 |
| H3255 | 0.716 | 0.752 | 0.667 | 0.755 | 0.776 | 0.829 | 0.608 | 0.513 | 0.595 | 0.558 | 0.505 | 0.63 | 0.597 | 0.603 | 0.962 | 0.867 | 0.832 | 0.602 | 0.526 | 0.502 |
| HARA | 0.507 | 0.509 | 0.388 | 0.98 | 0.945 | 0.682 | 0.795 |  | 0.764 | 0.632 | 0.763 | 0.397 | 0.469 | 0.425 | 0.901 | 0.847 | 0.776 | 0.254 |  | 0.269 |
| HCC-15 | 0.748 | 0.682 | 0.63 | 0.867 | 0.766 | 0.676 | 0.666 | 0.628 | 0.756 | 0.701 | 0.693 | 0.799 | 0.607 | 0.623 | 0.798 | 0.758 | 0.812 | 0.213 | 0.23 | 0.243 |
| HCC-44 | 0.981 | 0.972 | 0.953 | 0.926 | 0.749 | 0.699 | 1.01 | 0.958 | 1 | 1.01 | 1.02 |  | 0.482 | 0.6 | 0.717 | 0.705 | 0.658 | 0.635 | 0.627 | 0.702 |
| HCC-78 | 0.489 | 0.414 | 0.425 | 0.375 | 0.285 | 0.334 | 0.849 | 0.714 | 0.93 | 0.938 | 0.762 | 0.342 | 0.399 | 0.469 | 0.45 | 0.426 | 0.444 | 1.01 | 0.915 | 0.967 |
| HCC-366 | 0.506 | 0.325 | 0.279 | 0.903 | 0.54 | 0.314 | 0.384 | 0.281 | 0.366 | 0.383 | 0.393 | 1.16 | 0.872 | 0.729 | 0.922 | 0.601 | 0.649 | 0.16 | 0.182 | 0.174 |

From the supplement of paper PMC10307832
